Patent EP4741383A1, “COMPOUND AND USE THEREOF AS ANTI-CANCER DRUG” (Tyligand Bioscience (Shanghai) Limited, priority 2023, dated 2025)
pIC50: −log10 of the molar value.

Tests used:
Format in all cases: biochemical
CDC14A = target: T1, CDC14A (Homo sapiens, UniProt Q9UNH5); experiment: Tyrosine phosphatase selectivity (pNPP substrate), CDC14A; conditions: for pIC50: CDC14A, pNPP substrate; for IC50PTP/IC50SHP2 CDC14A: selectivity ratio CDC14A over SHP2
T1 construct: made in house; host or cells: E. coli
T1 sequence (Q9UNH5 1-594): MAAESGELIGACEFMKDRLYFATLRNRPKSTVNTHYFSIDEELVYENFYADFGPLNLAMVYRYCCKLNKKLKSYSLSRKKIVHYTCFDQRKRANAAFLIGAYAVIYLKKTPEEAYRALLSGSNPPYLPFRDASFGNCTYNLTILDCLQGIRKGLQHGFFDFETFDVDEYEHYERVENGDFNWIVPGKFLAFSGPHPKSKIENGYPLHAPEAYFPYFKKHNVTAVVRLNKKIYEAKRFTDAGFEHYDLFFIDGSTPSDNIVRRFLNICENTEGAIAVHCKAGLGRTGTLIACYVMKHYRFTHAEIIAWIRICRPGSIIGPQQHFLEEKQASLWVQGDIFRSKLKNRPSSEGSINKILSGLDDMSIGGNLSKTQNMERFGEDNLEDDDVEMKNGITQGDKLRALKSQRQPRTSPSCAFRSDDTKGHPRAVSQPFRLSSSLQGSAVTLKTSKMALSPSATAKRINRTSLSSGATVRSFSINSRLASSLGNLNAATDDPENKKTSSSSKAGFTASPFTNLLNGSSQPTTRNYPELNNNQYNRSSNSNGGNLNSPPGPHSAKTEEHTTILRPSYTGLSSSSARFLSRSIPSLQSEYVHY
Description: (§1) This experiment evaluated the selectivity of the disclosed compounds against tyrosine phosphatases, including SHP1, HePTP, Laforin, LMWPTP, LYP, PTP1B, PRL2, SSU72, VHR, FAP1, STEP, CDC14A, CD45, MEG2, and PP5, all expressed and purified from E. coli.
(§2) Phosphatase activity was measured using p-nitrophenyl phosphate (pNPP) (Fisher Scientific) as the substrate in 50 mM 3,3-dimethylglutaric acid buffer (pH 7.0, containing 1 mM EDTA), with ionic strength adjusted to 0.15 M with NaCl. […] After 10-60 minutes, the reaction was quenched by adding 20 µL of 5 N NaOH. Wells without enzyme were used as controls for correction. The amount of the product, p-nitrophenol, was determined by measuring the absorbance at 405 nm using a Spectra MAX340 microplate spectrophotometer (Molecular Devices), with a molar extinction coefficient of 18000 M^-1cm^-1.
(§3) Data were analyzed using GraphPad Prism software. Dose-response curves were obtained by fitting data using the nonlinear S-curve regression Dose-response-inhibition equation, and IC50 values were calculated.

PP5 = target: T2, PP5 (Homo sapiens, UniProt P53041); experiment: Tyrosine phosphatase selectivity (pNPP substrate), PP5; conditions: for pIC50: PP5, pNPP substrate; for IC50PTP/IC50SHP2 PP5: selectivity ratio PP5 over SHP2
T2 construct: made in house; host or cells: E. coli
T2 sequence (P53041 1-499): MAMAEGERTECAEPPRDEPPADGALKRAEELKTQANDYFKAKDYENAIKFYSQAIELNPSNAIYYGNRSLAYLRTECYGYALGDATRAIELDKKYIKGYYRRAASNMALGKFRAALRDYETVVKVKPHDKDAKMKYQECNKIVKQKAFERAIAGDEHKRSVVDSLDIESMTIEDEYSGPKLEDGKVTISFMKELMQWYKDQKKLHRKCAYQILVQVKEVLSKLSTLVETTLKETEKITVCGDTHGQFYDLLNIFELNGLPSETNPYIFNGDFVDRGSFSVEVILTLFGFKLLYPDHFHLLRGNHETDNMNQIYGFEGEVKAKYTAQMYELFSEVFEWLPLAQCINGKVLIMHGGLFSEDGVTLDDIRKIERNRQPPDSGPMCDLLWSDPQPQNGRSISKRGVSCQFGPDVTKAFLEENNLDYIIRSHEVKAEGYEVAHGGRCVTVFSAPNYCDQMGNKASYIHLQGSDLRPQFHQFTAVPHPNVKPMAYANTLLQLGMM
Description: as §1, §2, §3

MEG2 = target: T3, MEG2 (Homo sapiens, UniProt P43378); experiment: Tyrosine phosphatase selectivity (pNPP substrate), MEG2; conditions: for pIC50: MEG2, pNPP substrate; for IC50PTP/IC50SHP2 MEG2: selectivity ratio MEG2 over SHP2
T3 construct: made in house; host or cells: E. coli
T3 sequence (P43378 1-593): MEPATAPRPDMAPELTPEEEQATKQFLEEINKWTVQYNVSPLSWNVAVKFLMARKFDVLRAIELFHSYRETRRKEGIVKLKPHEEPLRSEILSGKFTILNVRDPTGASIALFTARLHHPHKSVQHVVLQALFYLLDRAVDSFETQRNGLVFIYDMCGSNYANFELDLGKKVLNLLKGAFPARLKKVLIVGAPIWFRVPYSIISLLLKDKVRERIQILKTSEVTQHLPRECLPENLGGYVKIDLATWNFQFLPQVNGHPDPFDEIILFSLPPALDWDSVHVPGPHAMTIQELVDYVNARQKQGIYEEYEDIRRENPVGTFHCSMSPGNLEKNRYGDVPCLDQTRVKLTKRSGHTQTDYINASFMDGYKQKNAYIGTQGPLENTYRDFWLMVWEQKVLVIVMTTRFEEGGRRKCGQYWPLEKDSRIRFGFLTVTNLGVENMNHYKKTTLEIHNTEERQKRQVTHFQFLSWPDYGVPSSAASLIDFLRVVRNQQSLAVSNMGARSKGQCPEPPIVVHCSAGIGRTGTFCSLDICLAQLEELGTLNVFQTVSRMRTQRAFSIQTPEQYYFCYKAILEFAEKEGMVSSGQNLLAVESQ
Description: as §1, §2, §3

HePTP = target: T4, HePTP (Homo sapiens, UniProt P35236); experiment: Tyrosine phosphatase selectivity (pNPP substrate), HePTP; conditions: for pIC50: HePTP, pNPP substrate; for IC50PTP/IC50SHP2 HePTP: selectivity ratio HePTP over SHP2
T4 construct: made in house; host or cells: E. coli
T4 sequence (P35236 1-360): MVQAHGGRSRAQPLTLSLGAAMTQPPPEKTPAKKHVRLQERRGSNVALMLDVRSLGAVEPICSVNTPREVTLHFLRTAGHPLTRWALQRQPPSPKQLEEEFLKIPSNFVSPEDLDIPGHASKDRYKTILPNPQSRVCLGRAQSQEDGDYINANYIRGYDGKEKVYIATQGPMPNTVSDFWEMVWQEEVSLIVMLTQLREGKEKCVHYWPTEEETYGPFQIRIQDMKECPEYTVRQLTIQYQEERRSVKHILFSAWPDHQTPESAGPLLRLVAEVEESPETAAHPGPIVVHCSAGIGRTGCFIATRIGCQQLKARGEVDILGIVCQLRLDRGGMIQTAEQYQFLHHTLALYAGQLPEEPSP
Description: as §1, §2, §3

LMWPTP = target: T5, LMWPTP (Homo sapiens, UniProt P24666); experiment: Tyrosine phosphatase selectivity (pNPP substrate), LMWPTP; conditions: for pIC50: LMPTP*, pNPP substrate; for IC50PTP/IC50SHP2 LMPTP*: selectivity ratio LMPTP* over SHP2
T5 construct: made in house; host or cells: E. coli
T5 sequence (P24666 1-158): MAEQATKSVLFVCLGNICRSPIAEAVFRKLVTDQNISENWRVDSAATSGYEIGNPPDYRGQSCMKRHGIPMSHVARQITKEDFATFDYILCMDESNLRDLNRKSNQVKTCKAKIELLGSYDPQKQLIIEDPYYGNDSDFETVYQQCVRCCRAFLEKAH
Description: as §1, §2, §3

| SMILES | pIC50 (CDC14A) | IC50PTP/IC50SHP2 CDC14A (CDC14A) | pIC50 (PP5) | IC50PTP/IC50SHP2 PP5 (PP5) | pIC50 (MEG2) | IC50PTP/IC50SHP2 MEG2 (MEG2) | pIC50 (HePTP) | IC50PTP/IC50SHP2 HePTP (HePTP) | pIC50 (LMWPTP) | IC50PTP/IC50SHP2 LMPTP* (LMWPTP) |
| --- | --- | --- | --- | --- | --- | --- | --- | --- | --- | --- |
| O=C(Nc1ccc(-c2ccsc2)cc1)C(=O)Nc1ccc(-c2cc3cc(F)c(-c4nnn[nH]4)cc3n2C2CCC2)cc1 [Example 4] | < 4.30 | 1724.1 | < 4.30 | 1724.1 | 4.66 | 762.1 | 5.35 | 155.2 | < 4.70 | 689.7 |
| Cn1c(-c2cccc(NC(=O)C(=O)Nc3ccc(-c4ccsc4)cc3)c2)c(I)c2cc(C(=O)O)c(O)cc21 [Example 11a-1, reference compound] | 4.80 | 148 |  |  |  |  | 5.99 | 9.5 | 5.63 | 21.6 |
| O=C(Nc1ccc(-c2cc3cc(F)c(-c4nnn[nH]4)cc3n2C2CCC2)cc1)C(=O)Nc1ccc(N2CCOCC2)cc1 [Example 47] |  | 1587 | < 4.00 | 1587 | 6.00 | 15.7 | 6.10 | 12.6 | 5.96 | 17.3 |
| O=C(Nc1ccc(-c2cc3cc(F)c(-c4nnn[nH]4)cc3n2C2CCC2)cc1)C(=O)Nc1ccc(N2CCC3(CCOC3)CC2)cc1 [Example 67] |  | 2941 | < 4.00 | 2941 | 5.75 | 52.0 | 6.02 | 27.9 | 5.86 | 40.2 |
| CC1(n2c(-c3ccc(NC(=O)C(=O)Nc4ccc(N5CCC6(CCOC6)CC5)cc4)cc3)cc3cc(F)c(-c4nnn[nH]4)cc32)CCC1 [Example 68] | < 4.60 | 520.8 | < 4.60 | 520.8 | 6.05 | 18.5 | 5.93 | 29.3 | 6.43 | 7.7 |
| O=C(Nc1ccc(-c2cc3cc(F)c(-c4nnn[nH]4)cc3n2C2CCC2)cc1)C(=O)Nc1ccc(N2CC3COCC3C2)cc1 (stereo not drawn) [Example 114] |  | 1388 | < 4.00 | 1388 | 5.78 | 23.0 | 5.97 | 14.7 | 5.67 | 29.5 |
| Cn1cc(-c2ccc(NC(=O)C(=O)Nc3ccc(-c4cc5cc(F)c(-c6noc(=O)[nH]6)cc5n4C4CCC4)cc3)cc2)cn1 [Example 123] | < 4.00 | 709.2 | < 4.00 | 709.2 | 5.62 | 17.1 | 5.88 | 9.4 | 5.61 | 17.6 |
| Cn1cc(-c2ccc(NC(=O)C(=O)Nc3ccc(-c4cc5cc(F)c(-c6nnc(C(F)(F)F)[nH]6)cc5n4C4CCC4)cc3)cc2)cn1 [Example 124] | < 4.00 | 139.7 | < 4.00 | 139.7 | < 4.00 | 139.7 | < 4.00 | 139.7 | < 4.70 | 27.9 |
| O=C(Nc1ccc(-c2oc3cc(F)c(-c4nnn[nH]4)cc3c2C2CCC2)cc1)C(=O)Nc1ccc(N2CCC3(CCOC3)CC2)cc1 [Example 125] | < 4.00 | 1960.8 | < 4.00 | 1960.8 | 5.07 | 167.5 | 4.44 | 703.9 | 5.65 | 43.9 |
| O=C(Nc1ccc(-c2ccsc2)cc1)C(=O)Nc1ccc(-c2cc3ccc(-c4nnn[nH]4)nc3n2C2CCC2)cc1 [Example 129] | 4.46 | 586.4 | < 4.30 | 847.5 | 5.14 | 122.0 | < 4.70 | 339.0 | < 4.70 | 339.0 |
| O=C(Nc1ccc(-c2ccsc2)cc1)C(=O)Nc1ccc(-c2oc3cc(F)c(-c4nnn[nH]4)cc3c2C2CCC2)cc1 [Example 130] | < 4.30 | 2000 | < 4.30 | 2000 | > 5.52 | 120 | < 4.70 | 800 | < 4.70 | 800 |
| O=C(Nc1ccc(-c2ccsc2)cc1)C(=O)Nc1ccc(-c2cc3cnc(-c4nnn[nH]4)nc3n2C2CCC2)cc1 [Example 131] | < 4.30 | 1923.1 | < 4.30 | 1923.1 | 5.00 | 380.8 | 5.21 | 234.6 | < 4.70 | 769.2 |
| O=C(Nc1ccc(-c2ccsc2)cc1)C(=O)Nc1ccc(-c2cc3cc(F)c(-c4nnn[nH]4)nc3n2C2CCC2)cc1 [Example 132] | < 4.30 | 1851.9 | < 4.30 | 1851.9 | 4.82 | 559.3 | 5.24 | 211.1 | < 4.70 | 740.7 |
